# Patent publication US20260053812A1, “METHODS OF TREATING HYPERTENSION WITH A COMBINATION OF AN ALDOSTERONE SYNTHASE INHIBITOR AND A DIURETIC” (Mineralys Therapeutics, Inc., priority 2022, published 2026)
# Assay: Adverse events (TEAEs, SAEs, AESI; Safety Analysis Set)
# From the text: In analyses performed on the Safety Analysis Set, subjects will be analyzed according to their actual treatment received.
structure (smiles),measurement,setting,value
CC(=O)N[C@H]1CC[C@H](NC(=O)CN2CCN(c3nncc(-c4ccc(C)cc4)n3)CC2)CC1 [Compound A HBr],"On-treatment TEAE, Hyperkalaemia, Mild, %","Part 1, 100 mg QD (N = 30)",(26.7) %
same,"On-treatment TEAE, Infections and infestations, %","Part 1, 100 mg QD (N = 30)",(6.7) %
same,"On-treatment TEAE, Infections and infestations, Moderate, %","Part 1, 100 mg QD (N = 30)",(6.7) %
same,"On-treatment TEAE, Investigations, %","Part 1, 100 mg QD (N = 30)",(26.7) %
same,"On-treatment TEAE, Investigations, Mild, %","Part 1, 100 mg QD (N = 30)",(20.0) %
same,"On-treatment TEAE, Investigations, Moderate, %","Part 1, 100 mg QD (N = 30)",(6.7) %
same,"On-treatment TEAE, Metabolism and nutrition disorders, %","Part 1, 100 mg QD (N = 30)",(26.7) %
same,"On-treatment TEAE, Metabolism and nutrition disorders, Mild, %","Part 1, 100 mg QD (N = 30)",(26.7) %
same,"On-treatment TEAE, Psychiatric disorders, %","Part 1, 100 mg QD (N = 30)",(6.7) %
same,"On-treatment TEAE, Psychiatric disorders, Moderate, %","Part 1, 100 mg QD (N = 30)",(6.7) %
same,"On-treatment TEAE, Urinary tract infection, %","Part 1, 100 mg QD (N = 30)",(3.3) %
same,"On-treatment TEAE, Vascular disorders, %","Part 1, 100 mg QD (N = 30)",(3.3) %
same,"On-treatment TEAE, Vascular disorders, Moderate, %","Part 1, 100 mg QD (N = 30)",(3.3) %
same,"Subjects with any On-treatment TEAEs leading to withdrawal from study drug, %","Part 1, 100 mg QD (N = 30)",(13.3) %
same,"Subjects with any On-treatment TEAEs, Mild, %","Part 1, 100 mg QD (N = 30)",(30.0) %
same,"Subjects with any On-treatment TEAEs, Moderate, %","Part 1, 100 mg QD (N = 30)",(23.3) %
same,"TEAE leading to permanent discontinuation from study drug, Activated partial thromboplastin time prolonged, %","Part 1, 100 mg QD (N = 30)",(3.3) %
same,"TEAE leading to permanent discontinuation from study drug, Hyperkalaemia, %","Part 1, 100 mg QD (N = 30)",(6.7) %
same,"TEAE leading to permanent discontinuation from study drug, Hypotension, %","Part 1, 100 mg QD (N = 30)",(3.3) %
same,"TEAE leading to permanent discontinuation from study drug, Investigations, %","Part 1, 100 mg QD (N = 30)",(3.3) %
same,"TEAE leading to permanent discontinuation from study drug, Metabolism and nutrition disorders, %","Part 1, 100 mg QD (N = 30)",(6.7) %
same,"TEAE leading to permanent discontinuation from study drug, Vascular disorders, %","Part 1, 100 mg QD (N = 30)",(3.3) %
same,"On-treatment TEAE, Blood and lymphatic system disorders, %","Part 1, Active (N = 133)",(1.5) %
same,"On-treatment TEAE, Blood and lymphatic system disorders, Mild, %","Part 1, Active (N = 133)",(1.5) %
same,"On-treatment TEAE, Blood creatinine increased, %","Part 1, Active (N = 133)",(2.3) %
same,"On-treatment TEAE, Blood creatinine increased, Mild, %","Part 1, Active (N = 133)",(2.3) %
same,"On-treatment TEAE, Cardiac disorders, %","Part 1, Active (N = 133)",(3.0) %
same,"On-treatment TEAE, Cortisol decreased, %","Part 1, Active (N = 133)",(2.3) %
same,"On-treatment TEAE, Cortisol decreased, Mild, %","Part 1, Active (N = 133)",(2.3) %
same,"On-treatment TEAE, Dizziness, %","Part 1, Active (N = 133)",(2.3) %
same,"On-treatment TEAE, Gastrointestinal disorders, %","Part 1, Active (N = 133)",(4.5) %
same,"On-treatment TEAE, Gastrointestinal disorders, Mild, %","Part 1, Active (N = 133)",(3.8) %
same,"On-treatment TEAE, General disorders and administration site conditions, %","Part 1, Active (N = 133)",(3.8) %
same,"On-treatment TEAE, General disorders and administration site conditions, Mild, %","Part 1, Active (N = 133)",(1.5) %
same,"On-treatment TEAE, Glomerular filtration rate decreased, %","Part 1, Active (N = 133)",(6.8) %
same,"On-treatment TEAE, Glomerular filtration rate decreased, Mild, %","Part 1, Active (N = 133)",(6.0) %
same,"On-treatment TEAE, Headache, %","Part 1, Active (N = 133)",(2.3) %
same,"On-treatment TEAE, Headache, Mild, %","Part 1, Active (N = 133)",(2.3) %
same,"On-treatment TEAE, Hyperkalaemia, %","Part 1, Active (N = 133)",(23.3) %
same,"On-treatment TEAE, Hyperkalaemia, Mild, %","Part 1, Active (N = 133)",(19.5) %
same,"On-treatment TEAE, Hyperkalaemia, Moderate, %","Part 1, Active (N = 133)",(3.0) %
same,"On-treatment TEAE, Hyperkalaemia, Severe, %","Part 1, Active (N = 133)",(0.8) %
same,"On-treatment TEAE, Hypertension, %","Part 1, Active (N = 133)",(3.8) %
same,"On-treatment TEAE, Hypertension, Moderate, %","Part 1, Active (N = 133)",(2.3) %
same,"On-treatment TEAE, Infections and infestations, %","Part 1, Active (N = 133)",(8.3) %
same,"On-treatment TEAE, Infections and infestations, Mild, %","Part 1, Active (N = 133)",(3.8) %
same,"On-treatment TEAE, Infections and infestations, Moderate, %","Part 1, Active (N = 133)",(4.5) %
same,"On-treatment TEAE, Investigations, %","Part 1, Active (N = 133)",(15.8) %
same,"On-treatment TEAE, Investigations, Mild, %","Part 1, Active (N = 133)",(12.8) %
same,"On-treatment TEAE, Investigations, Moderate, %","Part 1, Active (N = 133)",(3.0) %
same,"On-treatment TEAE, Metabolism and nutrition disorders, %","Part 1, Active (N = 133)",(25.6) %
same,"On-treatment TEAE, Metabolism and nutrition disorders, Mild, %","Part 1, Active (N = 133)",(21.8) %
same,"On-treatment TEAE, Metabolism and nutrition disorders, Moderate, %","Part 1, Active (N = 133)",(3.0) %
same,"On-treatment TEAE, Nervous system disorders, %","Part 1, Active (N = 133)",(6.0) %
same,"On-treatment TEAE, Nervous system disorders, Mild, %","Part 1, Active (N = 133)",(4.5) %
same,"On-treatment TEAE, Orthostatic hypotension, %","Part 1, Active (N = 133)",(2.3) %
same,"On-treatment TEAE, Orthostatic hypotension, Mild, %","Part 1, Active (N = 133)",(2.3) %
same,"On-treatment TEAE, Psychiatric disorders, %","Part 1, Active (N = 133)",(2.3) %
same,"On-treatment TEAE, Psychiatric disorders, Moderate, %","Part 1, Active (N = 133)",(2.3) %
same,"On-treatment TEAE, Urinary tract infection, %","Part 1, Active (N = 133)",(5.3) %
same,"On-treatment TEAE, Urinary tract infection, Mild, %","Part 1, Active (N = 133)",(3.0) %
same,"On-treatment TEAE, Vascular disorders, %","Part 1, Active (N = 133)",(6.8) %
same,"On-treatment TEAE, Vascular disorders, Mild, %","Part 1, Active (N = 133)",(3.8) %
same,"On-treatment TEAE, Vascular disorders, Moderate, %","Part 1, Active (N = 133)",(3.0) %
same,"Subjects with any On-treatment TEAEs leading to withdrawal from study drug, %","Part 1, Active (N = 133)",(7.5) %
same,"Subjects with any On-treatment TEAEs, Mild, %","Part 1, Active (N = 133)",(35.3) %
same,"Subjects with any On-treatment TEAEs, Moderate, %","Part 1, Active (N = 133)",(18.8) %
same,"Subjects with any On-treatment TEAEs, Severe, %","Part 1, Active (N = 133)",(0.8) %
same,"TEAE leading to permanent discontinuation from study drug, Activated partial thromboplastin time prolonged, %","Part 1, Active (N = 133)",(0.8) %
same,"TEAE leading to permanent discontinuation from study drug, Cardiac disorders, %","Part 1, Active (N = 133)",(0.8) %
same,"TEAE leading to permanent discontinuation from study drug, Coronary artery disease, %","Part 1, Active (N = 133)",(0.8) %
same,"TEAE leading to permanent discontinuation from study drug, Dizziness, %","Part 1, Active (N = 133)",(0.8) %
same,"TEAE leading to permanent discontinuation from study drug, Hyperkalaemia, %","Part 1, Active (N = 133)",(3.8) %
same,"TEAE leading to permanent discontinuation from study drug, Hypertension, %","Part 1, Active (N = 133)",(0.8) %
same,"TEAE leading to permanent discontinuation from study drug, Hypotension, %","Part 1, Active (N = 133)",(0.8) %
same,"TEAE leading to permanent discontinuation from study drug, Investigations, %","Part 1, Active (N = 133)",(0.8) %
same,"TEAE leading to permanent discontinuation from study drug, Metabolism and nutrition disorders, %","Part 1, Active (N = 133)",(3.8) %
same,"TEAE leading to permanent discontinuation from study drug, Nervous system disorders, %","Part 1, Active (N = 133)",(0.8) %
same,"TEAE leading to permanent discontinuation from study drug, Orthostatic hypotension, %","Part 1, Active (N = 133)",(0.8) %
